Test results taken from article PMC12505664, “Enflicoxib for the long-term management of canine osteoarthritis—External validation of a population pharmacokinetic model in dogs with osteoarthritis” (Frontiers in Veterinary Science, 2025).
Like-named read-outs stand apart in the source and are kept apart here.

Tests used:
[1] = Maximum a posteriori Bayesian (MAPB) estimation of individual PK parameters in dogs with OA; assay type: in vivo
Excerpt: As a similar PK behavior between populations was concluded, the same popPK model could be used, and a Bayesian approach was used for the determination of individual enflicoxib and the pyrazol metabolite exposure in osteoarthritic animals.
A maximum a posteriori Bayesian (MAPB) estimation using the post hoc subroutine in NONMEM was used to provide the individual PK parameters in osteoarthritic dogs.
MAPB estimation applied likelihood maximization in the form of minimizing the objective function (minus 2 log likelihood), to estimate individual PK parameters of each dog with OA. In this analysis, the MAPB estimation incorporated both a priori PK information, that is, the established PK model of enflicoxib and the pyrazol metabolite in healthy Beagle dogs, and a posteriori PK data, which corresponds to PK data from osteoarthritic dogs. The individual PK parameters along with individual predicted PK profiles for each dog treated with enflicoxib were calculated by fitting the animal PK dataset, which includes dosing, sampling times, parent and metabolite levels, and covariate information, to the established population enflicoxib and the pyrazol metabolite PK model in healthy Beagle dogs.
The maximum a posteriori Bayesian (MAPB) estimation was applied to provide the most likely individual PK profile for each dog with OA, using the “POSTHOC” subroutine and $ESTIMATION command set to MAXEVAL=0 in NONMEM.
Individual PK parameters and individual PK profiles of enflicoxib and the pyrazol metabolite were estimated for each dog.
Finally, the Bayesian approach enabled the estimation of the main individual PK parameters of enflicoxib and the pyrazol metabolite. Using these individual PK parameters, predicted profiles for each animal were estimated, allowing the calculation of the derived exposure parameters, such as Cmax, Cmin, AUCτ, and T1/2 in all treated dogs. The distribution and the mean estimates of enflicoxib and the pyrazol metabolite PK parameters at selected time points are depicted in Supplementary Figures S3, S4, respectively.

[2] = parameters: method as in PMID 34160092; settings: previously validated method, cited from earlier work
[3] = overdose study, repeated weekly administrations, Beagle dogs; cited from earlier work
[4] = mean across weeks, Bayesian predicted profiles

## NS(=O)(=O)c1ccc(N2N=C(C(F)(F)F)CC2c2ccc(F)cc2F)cc1 (stereo not shown) [Enflicoxib]
[1]; 6 months of weekly treatment
  Time-dependent pharmacokinetics or over-accumulation: no evidence of time-dependent pharmacokinetics or over-accumulation
[1]; [4]
  AUCτ: 3,810 ng/mL·d
  Cmin: ~ 185 ng/mL
[1]; mean, all weeks of weekly treatment, Bayesian predicted profiles
  Cmax: ≈ 1,173 ng/mL
[1]; weekly treatment
  Time to PK steady-state: 4 weeks
[2]; following 4 freeze–thaw cycles
  Stability in dog plasma: stable
[2]; nominally −20 °C for 402 days
  Stability in dog plasma: stable
[2]; room temperature for 4 h
  Stability in dog plasma: stable
[2]; stored at −20 °C
  Long-term stability in dog plasma samples: ≥ 402 days
[3]
  Dose proportionality of pharmacokinetics: dose-proportional pharmacokinetics
